{"source": "ChEMBL document CHEMBL1201862", "about": "“PubChem BioAssay data set” (2004)", "experiment_in_all_cases": "DTP human tumour cell line panel, 48 h", "key": {"PC-3": {"system": "PC-3"}, "HCT-15": {"system": "HCT-15"}, "NCI-H23": {"system": "NCI-H23"}, "786-0": {"system": "786-0"}, "BT-549": {"system": "BT-549"}, "CAKI-1": {"system": "CAKI-1"}, "MDA-MB-231": {"system": "MDA-MB-231"}, "SR": {"system": "SR"}, "DU-145": {"system": "DU-145"}, "MDA-MB-435": {"system": "MDA-MB-435"}, "A498": {"system": "A498"}, "UACC-257": {"system": "UACC-257"}, "NCI-H460": {"system": "NCI-H460"}, "OVCAR-3": {"system": "OVCAR-3"}, "SF-268": {"system": "SF-268"}, "MDA-N": {"system": "MDA-N"}, "RPMI-8226": {"system": "RPMI-8226"}, "HOP-92": {"system": "HOP-92"}, "NCI-H522": {"system": "NCI-H522"}, "SNB-75": {"system": "SNB-75"}, "LOX IMVI": {"system": "LOX IMVI"}, "A549": {"system": "A549"}, "T47D": {"system": "T47D"}, "SK-MEL-28": {"system": "SK-MEL-28"}, "MOLT-4": {"system": "MOLT-4"}, "M14": {"system": "M14"}, "SN12C": {"system": "SN12C"}, "EKVX": {"system": "EKVX"}, "Malme-3M": {"system": "Malme-3M"}, "OVCAR-4": {"system": "OVCAR-4"}, "UACC-62": {"system": "UACC-62"}, "OVCAR-8": {"system": "OVCAR-8"}, "KM12": {"system": "KM12"}, "CCRF-CEM": {"system": "CCRF-CEM"}, "IGROV-1": {"system": "IGROV-1"}, "ACHN": {"system": "ACHN"}, "SK-MEL-2": {"system": "SK-MEL-2"}, "HT-29": {"system": "HT-29"}, "HCT-116": {"system": "HCT-116"}, "NCI/ADR-RES": {"system": "NCI/ADR-RES"}, "TK-10": {"system": "TK-10"}, "SW-620": {"system": "SW-620"}, "NCI-H226": {"system": "NCI-H226"}, "OVCAR-5": {"system": "OVCAR-5"}, "RXF 393": {"system": "RXF 393"}, "SNB-19": {"system": "SNB-19"}, "U-251": {"system": "U-251"}, "Hs-578T": {"system": "Hs-578T"}, "K562": {"system": "K562"}, "HOP-62": {"system": "HOP-62"}, "UO-31": {"system": "UO-31"}, "SF-295": {"system": "SF-295"}, "HCC 2998": {"system": "HCC 2998"}, "SK-MEL-5": {"system": "SK-MEL-5"}}, "note": "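Exposure lasted 48 hours, with cells grown in 96-well plates and compounds tested at five concentrations. At the GI50, growth is halved.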 Calls of active or inactive are those of the source. Cut-off read from the data, not from the text of the source: active = GI50 up to about 1.1 µM and inactive = higher."}
{"smiles": "c1ccc2sc(SCSc3nc4ccccc4s3)nc2c1", "values": [{"measurement": "GI50", "setting": "PC-3", "result": "42.1 µM (inactive)"}, {"measurement": "GI50", "setting": "HCT-15", "result": 20.6, "unit": "µM"}, {"measurement": "GI50", "setting": "NCI-H23", "result": "70.3 µM (inactive)"}, {"measurement": "GI50", "setting": "786-0", "result": "82.4 µM (inactive)"}, {"measurement": "GI50", "setting": "BT-549", "result": "> 100 µM (inactive)"}, {"measurement": "GI50", "setting": "CAKI-1", "result": "> 100 µM (inactive)"}, {"measurement": "GI50", "setting": "MDA-MB-231", "result": "> 100 µM (inactive)"}, {"measurement": "GI50", "setting": "SR", "result": "7.08 µM (inactive)"}, {"measurement": "GI50", "setting": "DU-145", "result": "> 100 µM (inactive)"}, {"measurement": "GI50", "setting": "MDA-MB-435", "result": "> 100 µM (inactive)"}, {"measurement": "GI50", "setting": "A498", "result": "> 100 µM (inactive)"}, {"measurement": "GI50", "setting": "UACC-257", "result": "28.5 µM (inactive)"}, {"measurement": "GI50", "setting": "NCI-H460", "result": "22.4 µM (inactive)"}, {"measurement": "GI50", "setting": "OVCAR-3", "result": "92.7 µM (inactive)"}, {"measurement": "GI50", "setting": "SF-268", "result": "> 100 µM (inactive)"}, {"measurement": "GI50", "setting": "MDA-N", "result": "76.2 µM (inactive)"}, {"measurement": "GI50", "setting": "RPMI-8226", "result": "51.5 µM (inactive)"}, {"measurement": "GI50", "setting": "HOP-92", "result": "> 100 µM (inactive)"}, {"measurement": "GI50", "setting": "NCI-H522", "result": "57.8 µM (inactive)"}, {"measurement": "GI50", "setting": "SNB-75", "result": "> 100 µM (inactive)"}, {"measurement": "GI50", "setting": "LOX IMVI", "result": "47.2 µM (inactive)"}, {"measurement": "GI50", "setting": "A549", "result": "81.3 µM (inactive)"}, {"measurement": "GI50", "setting": "T47D", "result": "> 100 µM (inactive)"}, {"measurement": "GI50", "setting": "SK-MEL-28", "result": "> 100 µM (inactive)"}, {"measurement": "GI50", "setting": "MOLT-4", "result": "8.81 µM (inactive)"}, {"measurement": "GI50", "setting": "M14", "result": "> 100 µM (inactive)"}, {"measurement": "GI50", "setting": "SN12C", "result": "> 100 µM (inactive)"}, {"measurement": "GI50", "setting": "EKVX", "result": "50.1 µM (inactive)"}, {"measurement": "GI50", "setting": "Malme-3M", "result": "> 100 µM (inactive)"}, {"measurement": "GI50", "setting": "OVCAR-4", "result": "> 100 µM (inactive)"}, {"measurement": "GI50", "setting": "UACC-62", "result": "71 µM (inactive)"}, {"measurement": "GI50", "setting": "OVCAR-8", "result": "> 100 µM (inactive)"}, {"measurement": "GI50", "setting": "KM12", "result": "> 100 µM (inactive)"}, {"measurement": "GI50", "setting": "CCRF-CEM", "result": "47.4 µM (inactive)"}, {"measurement": "GI50", "setting": "IGROV-1", "result": "> 100 µM (inactive)"}, {"measurement": "GI50", "setting": "ACHN", "result": "74.8 µM (inactive)"}, {"measurement": "GI50", "setting": "SK-MEL-2", "result": "> 100 µM (inactive)"}, {"measurement": "GI50", "setting": "HT-29", "result": "72.1 µM (inactive)"}, {"measurement": "GI50", "setting": "HCT-116", "result": "34.1 µM (inactive)"}, {"measurement": "GI50", "setting": "NCI/ADR-RES", "result": "94 µM (inactive)"}, {"measurement": "GI50", "setting": "TK-10", "result": "66.4 µM (inactive)"}, {"measurement": "GI50", "setting": "SW-620", "result": "96.8 µM (inactive)"}, {"measurement": "GI50", "setting": "NCI-H226", "result": "> 100 µM (inactive)"}, {"measurement": "GI50", "setting": "OVCAR-5", "result": "> 100 µM (inactive)"}, {"measurement": "GI50", "setting": "RXF 393", "result": "> 100 µM (inactive)"}, {"measurement": "GI50", "setting": "SNB-19", "result": "> 100 µM (inactive)"}, {"measurement": "GI50", "setting": "U-251", "result": "39.3 µM (inactive)"}, {"measurement": "GI50", "setting": "Hs-578T", "result": "> 100 µM (inactive)"}, {"measurement": "GI50", "setting": "K562", "result": "31.1 µM (inactive)"}, {"measurement": "GI50", "setting": "HOP-62", "result": "> 100 µM (inactive)"}, {"measurement": "GI50", "setting": "UO-31", "result": "86.1 µM (inactive)"}, {"measurement": "GI50", "setting": "SF-295", "result": "43.3 µM (inactive)"}, {"measurement": "GI50", "setting": "HCC 2998", "result": "75.9 µM (inactive)"}, {"measurement": "GI50", "setting": "SK-MEL-5", "result": "30.1 µM (inactive)"}]}
